These are literature values, as cited in paper PMC7395068, “The evolution of strategies to minimise the risk of human drug-induced liver injury (DILI) in drug discovery and development” (Archives of Toxicology, 2020).

For the series the following is noted: cited from earlier work.
Setting [1] is: binary in vivo DILI call given beside the severity category, ref Chen 2016.
Where [2] appears, read: human DILI concern category (LTKB DILIrank), ref Chen 2016.
The mark [3] stands for this setting: binary in vivo human DILI call, ref Chen 2016.
The mark [4] stands for this setting: human DILI, LTKB DILIrank category, ref Chen 2016.
Setting [5] is: LTKB DILIrank category, ref Chen 2016.
Where [6] appears, read: binary DILI call, ref Chen 2016.

Where two headings read alike, the source gives them in different places.

Consider `O=C(O)CN(CCN(CC(=O)O)CC(=O)O)CCN(CC(=O)O)CC(=O)O` [pentetic acid], for which the “DILI +VE (5-8), DILI -VE (-4)” value under setting [1] is listed as “-VE”. Moreover, the DILI severity category entry under setting [2] is “vNo-DILI-Concern”.

As to `CCOc1cc(CC(=O)N[C@@H](CC(C)C)c2ccccc2N2CCCCC2)ccc1C(=O)O` [repaglinide], the “DILI +VE (5-8), DILI -VE (-4)” value under setting [1] is listed as “+VE”. Besides, the DILI severity category entry under setting [2] was “vLess-DILI-Concern”.

On to golimumab, for which, where the note is “in vivo”, the “DILI +VE (5-8), DILI -VE (-4)” value is given as “-VE” and the DILI severity category result is recorded as “Ambiguous DILI-concern”.

Take `CC(C)c1cccc(C(C)C)c1OCOP(=O)(O)O` [fospropofol]: the “DILI +VE (5-8), DILI -VE (-4)” value under setting [3] is reported as “+VE”. Under setting [4], the DILI severity category entry was “vLess-DILI-Concern”.

As to `CO/N=C(\C(=O)N[C@@H]1C(=O)N2C(C(=O)O)=CCS[C@H]12)c1csc(N)n1` [ceftizoxime], under setting [5], the DILI severity category result was “Ambiguous DILI-concern”. Also, under setting [6], the “DILI +VE (5-8), DILI -VE (-4)” value is on record as “-VE”.

As for `CCC(=O)C(CC(C)N(C)C)(c1ccccc1)c1ccccc1` (stereo not shown) [methadone], for the setting “in vivo”, the “DILI +VE (5-8), DILI -VE (-4)” value was “-VE” and the DILI severity category result is “Ambiguous DILI-concern”.

`CCN1CC(CCN2CCOCC2)C(c2ccccc2)(c2ccccc2)C1=O` (stereo not shown) [doxapram]: the “DILI +VE (5-8), DILI -VE (-4)” value under setting [3] was “-VE”. In addition, the DILI severity category entry under setting [4] is “vNo-DILI-Concern”.

For `CCCCCOC(=O)Nc1nc(=O)n([C@@H]2O[C@H](C)[C@@H](O)[C@H]2O)cc1F` [capecitabine], the DILI severity category result under setting [5] is recorded as “Ambiguous DILI-concern”. Further, under setting [6], the “DILI +VE (5-8), DILI -VE (-4)” value is given as “-VE”.

`CC(C)Nc1ncccn1` [isaxonine]: the “DILI +VE (5-8), DILI -VE (-4)” value under setting [3] is “+VE”. Moreover, the DILI severity category result under setting [4] was “vMost-DILI-Concern”.

For the compound `CC(C)NCC(O)COc1ccc(CCOCC2CC2)cc1` (stereo not shown) [betaxolol], the DILI severity category result under setting [5] was “Ambiguous DILI-concern”. Moreover, under setting [6], the “DILI +VE (5-8), DILI -VE (-4)” value was “-VE”.

Regarding `CC(C)CN(C[C@@H](OP(=O)(O)O)[C@H](Cc1ccccc1)NC(=O)O[C@H]1CCOC1)S(=O)(=O)c1ccc(N)cc1` [fosamprenavir], the “DILI +VE (5-8), DILI -VE (-4)” value under setting [3] is on record as “-VE”. In addition, under setting [4], the DILI severity category entry is listed as “Ambiguous DILI-concern”.

As to `C[N+](C)(C)C[C@H](O)CC(=O)[O-]` [l-carnitine], the “DILI +VE (5-8), DILI -VE (-4)” value under setting [3] is given as “-VE”. Besides, the DILI severity category entry under setting [4] was “vNo-DILI-Concern”.

For `C[N+]1(C)CCCC(OC(=O)C(O)(c2ccccc2)c2ccccc2)C1` (stereo not shown) [mepenzolate], under setting [3], the “DILI +VE (5-8), DILI -VE (-4)” value is reported as “-VE”. Moreover, the DILI severity category result under setting [4] is “vNo-DILI-Concern”.

Consider `C/C(=N\O)C(C)NCC(C)(C)CNC(C)/C(C)=N/O` (stereo not shown) [exametazime], for which, under setting [3], the “DILI +VE (5-8), DILI -VE (-4)” value is “-VE”. Also, the DILI severity category result under setting [4] is on record as “vNo-DILI-Concern”.

Consider `CC1Cc2ccccc2N1NC(=O)c1ccc(Cl)c(S(N)(=O)=O)c1` (stereo not shown) [indapamide], for which the “DILI +VE (5-8), DILI -VE (-4)” value under setting [3] is “-VE”. Also, the DILI severity category result under setting [4] was “Ambiguous DILI-concern”.

Turning to `C[C@]12CCC(=O)C=C1CC[C@H]1[C@@H]3CC[C@](O)(C(=O)CO)[C@@]3(C)C[C@H](O)[C@@]12F` [fludrocortisone], the “DILI +VE (5-8), DILI -VE (-4)” value under setting [3] is “-VE”. Moreover, the DILI severity category result under setting [4] is listed as “vNo-DILI-Concern”.

Take `CNC(=O)c1c(I)c(NC(C)=O)c(I)c(C(=O)O)c1I` [iothalamate sodium]: the “DILI +VE (5-8), DILI -VE (-4)” value under setting [3] is listed as “-VE”. Moreover, the DILI severity category entry under setting [4] is “vNo-DILI-Concern”.

Regarding `COc1cc2c(cc1OC)[C@@H](Cc1cc(OC)c(OC)c(OC)c1)[N+](C)(CCCOC(=O)CC/C=C/CCC(=O)OCCC[N+]1(C)CCc3cc(OC)c(OC)cc3[C@H]1Cc1cc(OC)c(OC)c(OC)c1)CC2` (stereo partly shown) [mivacurium], the “DILI +VE (5-8), DILI -VE (-4)” value under setting [1] is recorded as “-VE”. For the same compound, under setting [2], the DILI severity category result was “vNo-DILI-Concern”.

As for asparaginase, under “in vivo”, the “DILI +VE (5-8), DILI -VE (-4)” value is recorded as “+VE” and the DILI severity category entry is “vMost-DILI-Concern”.

Regarding `COCCNC(=O)CN(CCN(CCN(CC(=O)[O-])CC(=O)NCCOC)CC(=O)[O-])CC(=O)[O-].[Gd+3]` [gadoversetamide], where the note is “in vivo”, the “DILI +VE (5-8), DILI -VE (-4)” value is given as “-VE” and the DILI severity category result was “vNo-DILI-Concern”.
